Laboratory results reported in patent US7402314B2, “In vivo activation of tumor-specific cytotoxic T cells” (The Scripps Research Institute, priority 1995, dated 2008).

Experiments:
[1] = target: HLA-A2.1 (Homo sapiens, UniProt P04439, D140Y/D185E/D98H/E176V/E277Q/G131W/G231S/I119V/I121R/I166T/I218V/L300P/L318F/N151K/N90K/P208A/P217A/Q86G/Q94H/R138H/R169H/T345S); assay: Competition assay of peptide binding to HLA-A2.1 (inhibition of M1 58-66 binding, clone 12 lysis of EA2 targets)
[2] = tested on: A2.1/K^b-Tg mice; assay: Peptide priming of A2.1/K^b-Tg mice, lytic activity of peptide-specific CTL; assay type: in vivo; design: Lytic Activity by Peptide-Specific CTL After Priming of A2.1/K^b-Tg Mice [Specific ^51Cr release (%)]: concentration or dose not given beside the values
[3] = tested on: peptide-pulsed T2 targets; assay type: cell-based, human
[4] = tested on: BT549; assay: Cytotoxicity assay, killing of tumors (Table 7); assay type: cell-based, human; settings: BT549, Breast, A2 +
Procedure: (§1) One hundred and six (106) target cells were incubated at 37° C. with […] of sodium ^51Cr chromate for 90 minutes in the presence or absence of specific peptide. Cells were washed three times and resuspended in 5% RPMI. For the assay, 104 ^51Cr-labeled target cells were incubated with different concentrations of effector cells in a final volume of […] in U-bottomed 96-well plates. Supernatants were removed after 4-7 hrs at 37° C., and the percent specific lysis was determined by the following formula: […]
(§2) Tumor cells were preincubated for 24 hours prior to the assay in media supplemented with γ-interferon (γ-IFN, 20 ng/ml) plus tumor necrosis factor-α (TNF-α, 3 ng/ml). It is known that such pretreatment of tumor cells increases the expression of MHC I and adhesion molecules such as ICAM I on the surface of the cell thus enhancing their sensitivity to lysis by CTL. (See, e.g., Fisk, et al., Lympho. & Cylokine Res. 13: 125-131 (1994); Fady, et al., Cancer Immunol. Immunother. 37: 329-336 (1993).)

[5] = tested on: CASKI; assay: Cytotoxicity assay, killing of tumors (Table 7); assay type: cell-based, human; settings: CASKI, Cervix, A2 +, Her-2 +
Procedure: as §1, §2

[6] = tested on: Hep-G2; assay: Cytotoxicity assay, killing of tumors (Table 7); assay type: cell-based, human; settings: Hep-G2, Hepatoma, A2 +, Her-2 +
Procedure: as §1, §2

[7] = tested on: JY; assay: Cytotoxicity assay, killing of tumors (Table 7); assay type: cell-based, human; settings: JY, Lymphoma, A2 +, Her-2 −
Procedure: as §1, §2

[8] = tested on: LG-2; assay: Cytotoxicity assay, killing of tumors (Table 7); assay type: cell-based, human; settings: LG-2, EBV-trans., A2 +, Her-2 −
Procedure: as §1, §2

[9] = tested on: MALME-3M; assay: Cytotoxicity assay, killing of tumors (Table 7); assay type: cell-based, human; settings: MALME-3M, Melanoma, A2 +, Her-2 +
Procedure: as §1, §2

[10] = tested on: MCF-7; assay: Cytotoxicity assay, killing of tumors (Table 7); assay type: cell-based, human; settings: MCF-7, Breast, A2 +, Her-2 +
Procedure: as §1, §2

[11] = tested on: MDA.M8231; assay: Cytotoxicity assay, killing of tumors (Table 7); assay type: cell-based, human; settings: MDA.M8231, Breast, A2 +
Procedure: as §1, §2

[12] = tested on: MDA.MB435; assay: Cytotoxicity assay, killing of tumors (Table 7); assay type: cell-based, human; settings: MDA.MB435, Breast, A2 −, Her-2 +
Procedure: as §1, §2

[13] = tested on: NCI.H1355; assay: Cytotoxicity assay, killing of tumors (Table 7); assay type: cell-based, human; settings: NCI.H1355, Lung, A2 +
Procedure: as §1, §2

[14] = tested on: OVCAR-5; assay: Cytotoxicity assay, killing of tumors (Table 7); assay type: cell-based, human; settings: OVCAR-5, Ovarian, A2 +, Her-2 +
Procedure: as §1, §2

[15] = tested on: SAOS.175; assay: Cytotoxicity assay, killing of tumors (Table 7); assay type: cell-based, human; settings: SAOS.175, Osteosarcoma, A2 +, Her-2 +
Procedure: as §1, §2

[16] = tested on: SKMEL-5; assay: Cytotoxicity assay, killing of tumors (Table 7); assay type: cell-based, human; settings: SKMEL-5, Melanoma, A2 +, Her-2 +
Procedure: as §1, §2

[17] = tested on: ST486; assay: Cytotoxicity assay, killing of tumors (Table 7); assay type: cell-based, human; settings: ST486, Lymphoma, A2 +, Her-2 −
Procedure: as §1, §2

[18] = tested on: SV80; assay: Cytotoxicity assay, killing of tumors (Table 7); assay type: cell-based, human; settings: SV80, Fibroblast, A2 +, Her-2 −
Procedure: as §1, §2

[19] = tested on: SW480; assay: Cytotoxicity assay, killing of tumors (Table 7); assay type: cell-based, human; settings: SW480, Colon, A2 +, Her-2 +
Procedure: as §1, §2

[20] = tested on: T98G; assay: Cytotoxicity assay, killing of tumors (Table 7); assay type: cell-based, human; settings: T98G, Glioblastoma, A2 +, Her-2 +
Procedure: as §1, §2

[21] = tested on: U2-OS; assay: Cytotoxicity assay, killing of tumors (Table 7); assay type: cell-based, human; settings: U2-OS, Osteosarcoma, A2 +, Her-2 +
Procedure: as §1, §2

[22] = tested on: U87G; assay: Cytotoxicity assay, killing of tumors (Table 7); assay type: cell-based, human; settings: U87G, Glioblastoma, A2 +, Her-2 −
Procedure: as §1, §2

[23] = + CYT (γ-IFN plus TNF-α, 24 hours)

STPPPGTRV [hu-wt-p53 149-157]
A2.1-binding activity / affinity for the presenting MHC class I molecule (in words) [1]: intermediate affinity
Lytic Activity by Peptide-Specific CTL After Priming of A2.1/K^b-Tg Mice [Specific ^51Cr release (%)] ([2]; E:T ratio of 60:1, peptide-pulsed T2A2/K^b targets, highest of at least three individual mice): 91%
A2.1/K^b-restricted peptide-specific CTL response of A2.1/K^b-Tg mice (in words) ([2]; mouse, in vivo): detectable
peptide concentration required for equivalent lysis of T2 targets by A2 vs. A2.1/K^b derived CTL (fold less) [3]: 3 fold

VMAGVGSPYV [Peptide H7]
Killing of Tumors Expressing Her-2/neu (percent specific lysis) [4, 23]: 36%
Killing of Tumors Expressing Her-2/neu (percent specific lysis) ([4]; no cytokines): 2%
Killing of Tumors Expressing Her-2/neu (percent specific lysis) [5, 23]: 20%
Killing of Tumors Expressing Her-2/neu (percent specific lysis) ([5]; no cytokines): 9%
Killing of Tumors Expressing Her-2/neu (percent specific lysis) [6, 23]: 29%
Killing of Tumors Expressing Her-2/neu (percent specific lysis) ([6]; no cytokines): 4%
Killing of Tumors Expressing Her-2/neu (percent specific lysis) [7, 23]: 2%
Killing of Tumors Expressing Her-2/neu (percent specific lysis) ([7]; no cytokines): 4%
Killing of Tumors Expressing Her-2/neu (percent specific lysis) [8, 23]: 3%
Killing of Tumors Expressing Her-2/neu (percent specific lysis) ([8]; no cytokines): 1%
Killing of Tumors Expressing Her-2/neu (percent specific lysis) [9, 23]: 14%
Killing of Tumors Expressing Her-2/neu (percent specific lysis) ([9]; no cytokines): 4%
Killing of Tumors Expressing Her-2/neu (percent specific lysis) [10, 23]: 40%
Killing of Tumors Expressing Her-2/neu (percent specific lysis) ([10]; no cytokines): 7%
Killing of Tumors Expressing Her-2/neu (percent specific lysis) [11, 23]: 89%
Killing of Tumors Expressing Her-2/neu (percent specific lysis) ([11]; no cytokines): 26%
Killing of Tumors Expressing Her-2/neu (percent specific lysis) [12, 23]: 1%
Killing of Tumors Expressing Her-2/neu (percent specific lysis) ([12]; no cytokines): 1%
Killing of Tumors Expressing Her-2/neu (percent specific lysis) [13, 23]: 62%
Killing of Tumors Expressing Her-2/neu (percent specific lysis) ([13]; no cytokines): 13%
Killing of Tumors Expressing Her-2/neu (percent specific lysis) [14, 23]: 23%
Killing of Tumors Expressing Her-2/neu (percent specific lysis) ([14]; no cytokines): 13%
Killing of Tumors Expressing Her-2/neu (percent specific lysis) [15, 23]: 35%
Killing of Tumors Expressing Her-2/neu (percent specific lysis) ([15]; no cytokines): 27%
Killing of Tumors Expressing Her-2/neu (percent specific lysis) [16, 23]: 40%
Killing of Tumors Expressing Her-2/neu (percent specific lysis) ([16]; no cytokines): 16%
Killing of Tumors Expressing Her-2/neu (percent specific lysis) [17, 23]: 8%
Killing of Tumors Expressing Her-2/neu (percent specific lysis) ([17]; no cytokines): 5%
Killing of Tumors Expressing Her-2/neu (percent specific lysis) [18, 23]: 2%
Killing of Tumors Expressing Her-2/neu (percent specific lysis) ([18]; no cytokines): 2%
Killing of Tumors Expressing Her-2/neu (percent specific lysis) [19, 23]: 17%
Killing of Tumors Expressing Her-2/neu (percent specific lysis) ([19]; no cytokines): 2%
Killing of Tumors Expressing Her-2/neu (percent specific lysis) [20, 23]: 93%
Killing of Tumors Expressing Her-2/neu (percent specific lysis) ([20]; no cytokines): 29%
Killing of Tumors Expressing Her-2/neu (percent specific lysis) [21, 23]: 62%
Killing of Tumors Expressing Her-2/neu (percent specific lysis) ([21]; no cytokines): 30%
Killing of Tumors Expressing Her-2/neu (percent specific lysis) [22, 23]: 1%
Killing of Tumors Expressing Her-2/neu (percent specific lysis) ([22]; no cytokines): 1%
